Converted amounts (≈) assume the structure as drawn.
What was measured:
Experiment in all cases: in vitro antibacterial evaluation, MIC by broth dilution
Type in all cases: cell-based
[1] = tested on: Escherichia coli; conditions: 18 hours at 35° C.
[2] = tested on: Enterococcus sp.; conditions: broth dilution, 18 hours at 35° C.
How it was run: (§1)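 Read-out: the lowest concentration at which the test strain fails to grow. Serial dilutions (64-0.06 μg/mL) in Muller-Hinton II […], 5×10^5 CFU/mL inoculum, NCCLS M7-A2 procedure.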

[3] = tested on: Staphylococcus sp.; conditions: broth dilution, 18 hours at 35° C.; for MIC Staphylococcus aureus (ATCC 29213): strain ATCC 29213; for MIC Staphylococcus aureus (GC 1131): strain GC 1131; for MIC Staphylococcus aureus (GC 3051): strain GC 3051; for MIC Staphylococcus aureus (GC 3053): strain GC 3053; for MIC Staphylococcus aureus (GC 4541): strain GC 4541; for MIC Staphylococcus aureus (GC 4542): strain GC 4542; for MIC Staphylococcus aureus-SMITH (GC 4543): strain GC 4543; for MIC Staphylococcus aureus (GC 4544): strain GC 4544; for MIC Staphylococcus aureus (GC 4545): strain GC 4545; for MIC Staphylococcus haemolyticus (GC 4546): strain GC 4546; for MIC Coagulase Negative Staphylococcus (GC 4547): strain GC 4547; for MIC Coagulase Negative Staphylococcus (GC 4548): strain GC 4548; for MIC Coagulase Negative Staphylococcus (GC 4549): strain GC 4549; for MIC Coagulase Negative Staphylococcus (GC 4551): strain GC 4551
How it was run: as §1

[4] = tested on: Streptococcus sp.; conditions: broth dilution, 18 hours at 35° C.
How it was run: as §1

[5] = inoculum 5×10^5 CFU/mL, strain ATCC 29212
[6] = inoculum 5×10^5 CFU/mL, strain GC 2242
[7] = inoculum 5×10^5 CFU/mL, strain GC 2243
[8] = inoculum 5×10^5 CFU/mL, strain GC 2691
[9] = inoculum 5×10^5 CFU/mL, strain GC 3059
[10] = inoculum 5×10^5 CFU/mL, strain GC 4552
[11] = inoculum 5×10^5 CFU/mL, strain GC 4553
[12] = inoculum 5×10^5 CFU/mL, strain GC 4554
[13] = inoculum 5×10^5 CFU/mL, strain GC 4556
[14] = inoculum 5×10^5 CFU/mL, strain GC 4557
[15] = inoculum 5×10^5 CFU/mL, strain GC 4558
[16] = inoculum 5×10^5 CFU/mL, strain GC 6189
[17] = inoculum 5×10^5 CFU/mL, strain ATCC 6301
[18] = inoculum 5×10^5 CFU/mL, strain GC 1894
[19] = inoculum 5×10^5 CFU/mL, strain GC 4563
[20] = inoculum 5×10^5 CFU/mL, strain GC 4564
[21] = inoculum 5×10^5 CFU/mL, strain GC 4565

CC(c1ccccc1)C1NC(=O)CNC(=O)C(CO)NC(=O)C(C(O)C2CNC(=N)N2C2OC(CO)C(O)C(O)C2O)NC(=O)C(C(O)C2CNC(=N)N2)NC(=O)C(Cc2ccc(OC3OC(CO)C(OC4OC5COC6(OC5C(O)C4O)C4CCCC6CCC4)C(O)C3O)cc2)NC1=O (stereo not shown) [Example 212]
MIC Escherichia coli (ATCC 25922) [1]: 32 µg/mL (≈ 22.6 µM) | MIC Escherichia coli (GC 4559) [1]: 32 µg/mL (≈ 22.6 µM) | MIC Escherichia coli (GC 4560) [1]: 2 µg/mL (≈ 1.41 µM) | MIC Enterococcus avium (GC 4558) [2]: 4 µg/mL (≈ 2.83 µM) | MIC Enterococcus faecalis (ATCC 29212) [2]: 8 µg/mL (≈ 5.65 µM) | MIC Enterococcus faecalis (GC 2242) [2]: 8 µg/mL (≈ 5.65 µM) | MIC Enterococcus faecalis (GC 2691) [2]: 8 µg/mL (≈ 5.65 µM) | MIC Enterococcus faecalis (GC 3059) [2]: 8 µg/mL (≈ 5.65 µM) | MIC Enterococcus faecalis (GC 4552) [2]: 8 µg/mL (≈ 5.65 µM) | MIC Enterococcus faecalis (GC 4553) [2]: 8 µg/mL (≈ 5.65 µM) | MIC Enterococcus faecalis (GC 4554) [2]: 8 µg/mL (≈ 5.65 µM) | MIC Enterococcus faecalis (GC 6189) [2]: 8 µg/mL (≈ 5.65 µM) | MIC Enterococcus faecium (GC 2243) [2]: 8 µg/mL (≈ 5.65 µM) | MIC Enterococcus faecium (GC 4556) [2]: 8 µg/mL (≈ 5.65 µM) | MIC Enterococcus faecium (GC 4557) [2]: 4 µg/mL (≈ 2.83 µM) | MIC Enterococcus faecalis (ATCC 29212) [2, 5]: 8 µg/mL (≈ 5.65 µM) | MIC Enterococcus faecalis (GC 2242) [2, 6]: 8 µg/mL (≈ 5.65 µM) | MIC Enterococcus faecium (GC 2243) [2, 7]: 8 µg/mL (≈ 5.65 µM) | MIC Enterococcus faecalis (GC 2691) [2, 8]: 8 µg/mL (≈ 5.65 µM) | MIC Enterococcus faecalis (GC 3059) [2, 9]: 8 µg/mL (≈ 5.65 µM) | MIC Enterococcus faecalis (GC 4552) [2, 10]: 8 µg/mL (≈ 5.65 µM) | MIC Enterococcus faecalis (GC 4553) [2, 11]: 8 µg/mL (≈ 5.65 µM) | MIC Enterococcus faecalis (GC 4554) [2, 12]: 8 µg/mL (≈ 5.65 µM) | MIC Enterococcus faecium (GC 4556) [2, 13]: 8 µg/mL (≈ 5.65 µM) | MIC Enterococcus faecium (GC 4557) [2, 14]: 4 µg/mL (≈ 2.83 µM) | MIC Enterococcus avium (GC 4558) [2, 15]: 4 µg/mL (≈ 2.83 µM) | MIC Enterococcus faecalis (GC 6189) [2, 16]: 8 µg/mL (≈ 5.65 µM) | MIC Staphylococcus aureus (ATCC 29213) [3]: 2 µg/mL (≈ 1.41 µM) | MIC Staphylococcus aureus (GC 1131) [3]: 4 µg/mL (≈ 2.83 µM) | MIC Staphylococcus aureus (GC 3051) [3]: 2 µg/mL (≈ 1.41 µM) | MIC Staphylococcus aureus (GC 3053) [3]: 4 µg/mL (≈ 2.83 µM) | MIC Staphylococcus aureus (GC 4541) [3]: 2 µg/mL (≈ 1.41 µM) | MIC Staphylococcus aureus (GC 4542) [3]: 2 µg/mL (≈ 1.41 µM) | MIC Staphylococcus aureus-SMITH (GC 4543) [3]: 2 µg/mL (≈ 1.41 µM) | MIC Staphylococcus aureus (GC 4544) [3]: 4 µg/mL (≈ 2.83 µM) | MIC Staphylococcus aureus (GC 4545) [3]: 2 µg/mL (≈ 1.41 µM) | MIC Staphylococcus haemolyticus (GC 4546) [3]: 2 µg/mL (≈ 1.41 µM) | MIC Coagulase Negative Staphylococcus (GC 4547) [3]: 2 µg/mL (≈ 1.41 µM) | MIC Coagulase Negative Staphylococcus (GC 4548) [3]: 2 µg/mL (≈ 1.41 µM) | MIC Coagulase Negative Staphylococcus (GC 4549) [3]: 2 µg/mL (≈ 1.41 µM) | MIC Coagulase Negative Staphylococcus (GC 4551) [3]: 2 µg/mL (≈ 1.41 µM) | MIC Coagulase Negative Staphylococcus (GC 6257) ([3]; strain GC 6257): 1 µg/mL (≈ 0.706 µM) | MIC Streptococcus agalactiae (GC 4564) [4]: 1 µg/mL (≈ 0.706 µM) | MIC Streptococcus pneumoniae (ATCC 6301) [4]: 0.5 µg/mL (≈ 0.353 µM) | MIC Streptococcus pneumoniae (GC 1894) [4]: <0.06 µg/mL | MIC Streptococcus pneumoniae (GC 4565) [4]: 0.25 µg/mL (≈ 0.177 µM) | MIC Streptococcus pyogenes (GC 4563) [4]: 1 µg/mL (≈ 0.706 µM) | MIC Streptococcus pneumoniae (ATCC 6301) [4, 17]: 0.5 µg/mL (≈ 0.353 µM) | MIC Streptococcus pneumoniae (GC 1894) [4, 18]: <0.06 µg/mL | MIC Streptococcus pyogenes (GC 4563) [4, 19]: 1 µg/mL (≈ 0.706 µM) | MIC Streptococcus agalactiae (GC 4564) [4, 20]: 1 µg/mL (≈ 0.706 µM) | MIC Streptococcus pneumoniae (GC 4565) [4, 21]: 0.25 µg/mL (≈ 0.177 µM)

CC(c1ccccc1)C1NC(=O)CNC(=O)C(CO)NC(=O)C(C(O)C2CNC(=N)N2C2OC(CO)C(O)C(O)C2O)NC(=O)C(C(O)C2CNC(=N)N2)NC(=O)C(Cc2ccc(OC3OC(CO)C(OC4OC5COC6(CC7CCC6(C)C7(C)C)OC5C(O)C4O)C(O)C3O)cc2)NC1=O (stereo not shown) [Example 214]
MIC Escherichia coli (ATCC 25922) [1]: 64 µg/mL (≈ 44.8 µM) | MIC Escherichia coli (GC 4559) [1]: 64 µg/mL (≈ 44.8 µM) | MIC Escherichia coli (GC 4560) [1]: 2 µg/mL (≈ 1.4 µM) | MIC Enterococcus avium (GC 4558) [2]: 2 µg/mL (≈ 1.4 µM) | MIC Enterococcus faecalis (ATCC 29212) [2]: 2 µg/mL (≈ 1.4 µM) | MIC Enterococcus faecalis (GC 2242) [2]: 2 µg/mL (≈ 1.4 µM) | MIC Enterococcus faecalis (GC 2691) [2]: 2 µg/mL (≈ 1.4 µM) | MIC Enterococcus faecalis (GC 3059) [2]: 2 µg/mL (≈ 1.4 µM) | MIC Enterococcus faecalis (GC 4552) [2]: 2 µg/mL (≈ 1.4 µM) | MIC Enterococcus faecalis (GC 4553) [2]: 2 µg/mL (≈ 1.4 µM) | MIC Enterococcus faecalis (GC 4554) [2]: 2 µg/mL (≈ 1.4 µM) | MIC Enterococcus faecalis (GC 6189) [2]: 2 µg/mL (≈ 1.4 µM) | MIC Enterococcus faecium (GC 2243) [2]: 1 µg/mL (≈ 0.7 µM) | MIC Enterococcus faecium (GC 4556) [2]: 2 µg/mL (≈ 1.4 µM) | MIC Enterococcus faecium (GC 4557) [2]: 2 µg/mL (≈ 1.4 µM) | MIC Enterococcus faecalis (ATCC 29212) [2, 5]: 2 µg/mL (≈ 1.4 µM) | MIC Enterococcus faecalis (GC 2242) [2, 6]: 2 µg/mL (≈ 1.4 µM) | MIC Enterococcus faecium (GC 2243) [2, 7]: 1 µg/mL (≈ 0.7 µM) | MIC Enterococcus faecalis (GC 2691) [2, 8]: 2 µg/mL (≈ 1.4 µM) | MIC Enterococcus faecalis (GC 3059) [2, 9]: 2 µg/mL (≈ 1.4 µM) | MIC Enterococcus faecalis (GC 4552) [2, 10]: 2 µg/mL (≈ 1.4 µM) | MIC Enterococcus faecalis (GC 4553) [2, 11]: 2 µg/mL (≈ 1.4 µM) | MIC Enterococcus faecalis (GC 4554) [2, 12]: 2 µg/mL (≈ 1.4 µM) | MIC Enterococcus faecium (GC 4556) [2, 13]: 2 µg/mL (≈ 1.4 µM) | MIC Enterococcus faecium (GC 4557) [2, 14]: 2 µg/mL (≈ 1.4 µM) | MIC Enterococcus avium (GC 4558) [2, 15]: 2 µg/mL (≈ 1.4 µM) | MIC Enterococcus faecalis (GC 6189) [2, 16]: 2 µg/mL (≈ 1.4 µM) | MIC Staphylococcus aureus (ATCC 29213) [3]: 2 µg/mL (≈ 1.4 µM) | MIC Staphylococcus aureus (GC 1131) [3]: 1 µg/mL (≈ 0.7 µM) | MIC Staphylococcus aureus (GC 3051) [3]: 32 µg/mL (≈ 22.4 µM) | MIC Staphylococcus aureus (GC 3053) [3]: 2 µg/mL (≈ 1.4 µM) | MIC Staphylococcus aureus (GC 4541) [3]: 2 µg/mL (≈ 1.4 µM) | MIC Staphylococcus aureus (GC 4542) [3]: 1 µg/mL (≈ 0.7 µM) | MIC Staphylococcus aureus-SMITH (GC 4543) [3]: 0.5 µg/mL (≈ 0.35 µM) | MIC Staphylococcus aureus (GC 4544) [3]: 1 µg/mL (≈ 0.7 µM) | MIC Staphylococcus aureus (GC 4545) [3]: 2 µg/mL (≈ 1.4 µM) | MIC Staphylococcus haemolyticus (GC 4546) [3]: 1 µg/mL (≈ 0.7 µM) | MIC Coagulase Negative Staphylococcus (GC 4547) [3]: 1 µg/mL (≈ 0.7 µM) | MIC Coagulase Negative Staphylococcus (GC 4548) [3]: 1 µg/mL (≈ 0.7 µM) | MIC Coagulase Negative Staphylococcus (GC 4549) [3]: 0.5 µg/mL (≈ 0.35 µM) | MIC Coagulase Negative Staphylococcus (GC 4551) [3]: 1 µg/mL (≈ 0.7 µM) | MIC Streptococcus agalactiae (GC 4564) [4]: <0.12 µg/mL | MIC Streptococcus pneumoniae (ATCC 6301) [4]: <0.12 µg/mL | MIC Streptococcus pneumoniae (GC 1894) [4]: <0.12 µg/mL | MIC Streptococcus pneumoniae (GC 4565) [4]: <0.12 µg/mL | MIC Streptococcus pyogenes (GC 4563) [4]: <0.12 µg/mL | MIC Streptococcus pneumoniae (ATCC 6301) [4, 17]: <0.12 µg/mL | MIC Streptococcus pneumoniae (GC 1894) [4, 18]: <0.12 µg/mL | MIC Streptococcus pyogenes (GC 4563) [4, 19]: <0.12 µg/mL | MIC Streptococcus agalactiae (GC 4564) [4, 20]: <0.12 µg/mL | MIC Streptococcus pneumoniae (GC 4565) [4, 21]: <0.12 µg/mL

Source: patent publication US6914045B2, “Glycopeptide antibiotics” (Wyeth Holdings Corporation, priority 2001, dated 2005)
